Assay results published in patent publication US20240325398A1, “COMBINATION THERAPIES” (Infinity Pharmaceuticals, Inc., priority 2014, published 2024).

Legend:
U-2932 = assay: Combination study, ATPLite 72 h, dose matrix (Synergy Score, CI50)
Mino = assay: as above; details: combination with Compound 1
OCI-Ly7 = assay: as above; details: combination with Compound 1, 72 h
KARPAS-299 = assay: as above; details: combination with Compound 1
WSU-NHL = assay: as above; details: combination with Compound 1, 72 h
DOHH2 = assay: Compound 1 with dexamethasone, CellTiter-Glo viability 72 h, combination index; assay type: cell-based; details: combination with Compound 1; DOHH2 cells; CellTiter-Glo 72 h; FIG. 11
Description: The effects of Compound 1 with dexamethasone were examined in a panel of cell lines. Cells were cultured and assayed as follows. Compound 1 was serially diluted with cell culture medium and various DMSO concentrations. The top concentration of Compound 1 exposed to cells was 3 uM for cell lines other than WSU-NHL and DOHH2. For WSU-NHL and DOHH2 cell lines, the top concentration of Compound 1 exposed to the cells was 0.3 uM. Dexamethasone was serially diluted in culture media and phosphate buffered saline (PBS). The top concentration of dexamethasone used on cells was 3 uM. Cells were at least 73% viable and were counted and diluted for plating at a density of about 92,000 cell/mL, 130 uL cells per well in 96 well plates for SUDHL6, Karpas 422, SUDHL4, WSU-NHL, RL, and DOHH2 cell lines. The SUDHL10 cell line was plated at a density of about 46,000 cells/mL, 130 uL cells per well in 96 well plates.
Various concentrations of Compound 1 and various combinations of dexamethasone were added to various wells of cells. Single agents (Compound 1 or dexamethasone alone) were also added to some wells of cells. Cells were incubated with compounds for 72 hours. To assay for effects of the compounds on cell viability, a CellTiter-Glo® luminescent cell viability assay (commercially available) was used. To each plate of cells, 100 uL CellTiter-Glo reagent was added, incubated, and luminescence quantified using a […].
The results for cell line DOHH2 are depicted in FIG. 11 and Table 11. […] Table 11 depicts combination index (CI) values for different combinations of dexamethasone/Compound 1 concentrations.

NCI-H929 = assay: Combination study, ATPLite 72 h, dose matrix (Synergy Score, CI50); details: combination with Compound 1
[1] = combination with CAL-101, Example 2
[2] = combination with Cmpd 1, Example 2
[3] = combination with Compound 1, 72 h

C[C@@H]1C[C@H]2[C@@H]3CCC4=CC(=O)C=C[C@]4(C)[C@@]3(F)[C@@H](O)C[C@]2(C)[C@@]1(O)C(=O)CO [dexamethasone, (8S,9R,10S,11S,13S,14S,16R,17R)-9-Fluoro-11,17-dihydroxy-17-(2-hydroxyacetyl)-10,13,16-trimethyl-6,7,8,9,10,11,12,13,14,15,16,17-dodecahydro-3H-cyclopenta[a]phenanthren-3-one]
CI50 growth inhibition (U-2932; [1]): S (S=0.01 to <0.5)
CI50 inhibition (U-2932; [1]): S (S=0.01 to <0.5)
Synergy Score growth inhibition (U-2932; [1]): A2 (A2=1 to <3)
Synergy Score inhibition (U-2932; [1]): A2 (A2=1 to <3)
CI50 growth inhibition (U-2932; [2]): S (S=0.01 to <0.5)
CI50 inhibition (U-2932; [2]): S (S=0.01 to <0.5)
Synergy Score growth inhibition (U-2932; [2]): A3 (A3=>3)
Synergy Score inhibition (U-2932; [2]): A2 (A2=1 to <3)
CI50 growth inhibition (U-2932; [3]): S (S=0.01 to <0.5)
CI50 inhibition (U-2932; [3]): S (S=0.01 to <0.5)
Synergy Score growth inhibition (U-2932; [3]): A3 (A3=>3)
Synergy Score inhibition (U-2932; [3]): A2 (A2=1 to <3)
CI50 growth inhibition (Mino): S (S=0.01 to <0.5)
CI50 inhibition (Mino): S (S=0.01 to <0.5)
Synergy Score growth inhibition (Mino): A3 (A3=>3)
Synergy Score inhibition (Mino): A2 (A2=1 to <3)
CI50 growth inhibition (OCI-Ly7): S (S=0.01 to <0.5)
CI50 inhibition (OCI-Ly7): S (S=0.01 to <0.5)
Synergy Score growth inhibition (OCI-Ly7): A3 (A3=>3)
Synergy Score inhibition (OCI-Ly7): A3 (A3=>3)
Synergy Score growth inhibition (KARPAS-299): A1 (A1=0.0001 to <1)
Synergy Score inhibition (KARPAS-299): A1 (A1=0.0001 to <1)
CI50 inhibition (WSU-NHL): T (T=0.5 to <0.7)
Synergy Score growth inhibition (WSU-NHL): A3 (A3=>3)
Synergy Score inhibition (WSU-NHL): A3 (A3=>3)
synergy of the combination (DOHH2): synergy
CI50 growth inhibition (NCI-H929): S (S=0.01 to <0.5)
CI50 inhibition (NCI-H929): U (U=0.7 to <1)
Synergy Score growth inhibition (NCI-H929): A3 (A3=>3)
Synergy Score inhibition (NCI-H929): A2 (A2=1 to <3)
